Results on 26 molecules are retold here after patent publication US10975056B2 (GlaxoSmithKline Intellectual Property Development Limited, priority 2016, dated 2021).

Each structure is given as a SMILES string. Several values for one entry are separate records, joined by “and”; a condition that tells them apart may be missing. Identical values can stand only once. Counter-ions that a name gives are not always drawn. Like-named read-outs stand apart in the source and are kept apart here.

For test [1], the target named is DNMT1 (Homo sapiens, UniProt P26358). The test is described as follows: DNMT1 biochemical activity, breaklight assay and/or SPA assay.
Sequence of DNMT1 (P26358 whole entry, looked up): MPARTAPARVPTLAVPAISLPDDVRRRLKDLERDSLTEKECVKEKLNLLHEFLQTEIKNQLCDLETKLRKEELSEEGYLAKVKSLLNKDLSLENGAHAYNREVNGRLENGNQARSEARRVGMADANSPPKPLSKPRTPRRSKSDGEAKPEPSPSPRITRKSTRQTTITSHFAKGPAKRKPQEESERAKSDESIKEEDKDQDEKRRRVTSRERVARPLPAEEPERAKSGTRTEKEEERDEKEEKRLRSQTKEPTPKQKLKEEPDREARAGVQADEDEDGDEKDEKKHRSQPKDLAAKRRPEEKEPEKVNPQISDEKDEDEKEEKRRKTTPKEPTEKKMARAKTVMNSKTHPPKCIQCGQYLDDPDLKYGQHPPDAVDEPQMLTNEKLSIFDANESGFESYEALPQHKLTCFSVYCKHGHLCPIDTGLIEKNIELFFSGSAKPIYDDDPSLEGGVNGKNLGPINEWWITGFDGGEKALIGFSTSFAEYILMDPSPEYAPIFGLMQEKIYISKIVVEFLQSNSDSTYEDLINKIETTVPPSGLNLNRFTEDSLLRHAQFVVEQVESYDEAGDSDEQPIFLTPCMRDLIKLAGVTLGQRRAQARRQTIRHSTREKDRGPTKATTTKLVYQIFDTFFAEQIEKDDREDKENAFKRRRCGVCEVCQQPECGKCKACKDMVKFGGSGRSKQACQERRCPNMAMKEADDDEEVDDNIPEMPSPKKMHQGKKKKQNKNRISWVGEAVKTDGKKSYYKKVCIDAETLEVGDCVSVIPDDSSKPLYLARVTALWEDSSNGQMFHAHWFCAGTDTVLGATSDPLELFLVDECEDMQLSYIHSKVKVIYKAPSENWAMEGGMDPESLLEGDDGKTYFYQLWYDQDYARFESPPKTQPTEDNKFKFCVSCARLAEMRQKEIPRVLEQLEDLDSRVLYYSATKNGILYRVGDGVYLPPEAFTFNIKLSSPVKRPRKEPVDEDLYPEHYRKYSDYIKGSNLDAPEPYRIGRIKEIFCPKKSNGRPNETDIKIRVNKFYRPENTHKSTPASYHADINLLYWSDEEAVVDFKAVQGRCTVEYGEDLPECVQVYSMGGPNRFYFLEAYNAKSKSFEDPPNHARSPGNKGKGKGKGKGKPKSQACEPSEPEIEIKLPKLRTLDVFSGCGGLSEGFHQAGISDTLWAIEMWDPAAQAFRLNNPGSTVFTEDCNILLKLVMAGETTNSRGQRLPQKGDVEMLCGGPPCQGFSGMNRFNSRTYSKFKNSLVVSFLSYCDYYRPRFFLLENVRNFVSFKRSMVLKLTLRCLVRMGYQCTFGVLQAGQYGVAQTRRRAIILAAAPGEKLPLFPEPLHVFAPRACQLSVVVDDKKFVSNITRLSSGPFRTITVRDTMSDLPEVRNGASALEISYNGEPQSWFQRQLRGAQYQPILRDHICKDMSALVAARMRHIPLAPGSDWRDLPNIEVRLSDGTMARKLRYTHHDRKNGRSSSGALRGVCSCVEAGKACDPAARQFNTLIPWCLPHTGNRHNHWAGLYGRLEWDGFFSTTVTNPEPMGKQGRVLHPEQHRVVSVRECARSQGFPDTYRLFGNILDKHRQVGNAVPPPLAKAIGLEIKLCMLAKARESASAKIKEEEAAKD
The subject of test [2] is erythroid progenitor cells (EPCs). The test can be described thus: Fetal hemoglobin (HbF) ELISA in day 7 erythroid progenitor cells.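 Also: for fetal hemoglobin induction normalized to vehicle-treated cells.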 The class given is cell-based, human. To be noted: Homo sapiens, Erythroid progenitor cell, HbF ELISA, day 7 EPCs, 5 days; read-out: EPC ELISA (pEC50 category) (converted). In outline:
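HbF induction was read by anti-HbF sandwich ELISA (HRP/TMB, OD450) on lysates and normalized to vehicle-treated cells. Cells were day 7 erythroid progenitors derived from human bone marrow CD34+ cells, seeded at 1,000/well with 3 U/mL rhEPO. Compound was given for 5 days at 37 °C at final concentrations […].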

Setting [3] is: binned activity in either the breaklight or the SPA assay, read-out: DNMT1 BioChemical (pIC50 category) (converted).
Setting [4] is: binned activity in either the breaklight or the SPA assay.

On to `CCc1c(C#N)c(SC(C(N)=O)c2ccccc2)nc(N2CCC3(CC2)COC(=O)N3)c1C#N` (centres unmarked) [Example 241, 2-((3,5-Dicyano-4-ethyl-6-(2-oxo-3-oxa-1,8-diazaspiro[4.5]decan-8-yl)pyridin-2-yl)thio)-2-phenylacetamide], for which, in test [1] (setting [3]), the IC50 is 316 to 1000 nM. Further, the EC50 in test [2] is 1000 to 31600 nM.
Take `CCc1c(C#N)c(SC(C(N)=O)c2ccccc2)nc(N2CCC(NC(=O)C3(N)COC3)CC2)c1C#N` (centres unmarked) [Example 186, 3-Amino-N-(1-(6-((2-amino-2-oxo-1-phenylethyl)thio)-3,5-dicyano-4-ethylpyridin-2-yl)piperidin-4-yl)oxetane-3-carboxamide]: the “DNMT1 BioChemical (pIC50 category)” value in test [1] (setting [4]) is given as “D (Category D: ≥6.5)”. Besides, in test [2], the EC50 is 1000 to 31600 nM.
Consider `CCc1c(C#N)c(SC(C(N)=O)c2cccc(P(C)(C)=O)c2)nc(N2CC[C@H](O)C2)c1C#N` (stereo partly drawn) [Example 420, 2-((3,5-Dicyano-4-ethyl-6-((S)-3-hydroxypyrrolidin-1-yl)pyridin-2-yl)thio)-2-(3-(dimethylphosphoryl)phenyl)acetamide], for which the IC50 in test [1] (setting [3]) is 316 to 1000 nM. Moreover, in test [2], the EC50 is 1000 to 31600 nM.
On to `CCc1c(C#N)c(SC(C(N)=O)c2ccccc2)nc(N2Cc3cn[nH]c3C2)c1C#N` (centres unmarked) [Example 236, 2-((3,5-Dicyano-4-ethyl-6-(pyrrolo[3,4-c]pyrazol-5(1H,4H,6H)-yl)pyridin-2-yl)thio)-2-phenylacetamide], for which the “DNMT1 BioChemical (pIC50 category)” value in test [1] (setting [4]) is “D (Category D: ≥6.5)”. For the same molecule, the EC50 in test [2] was more than 31600 nM.
In the case of `CCc1c(C#N)c(SC(C(N)=O)c2ccccc2)nc(N(C)CCN2CCC[C@@H]2CO)c1C#N` (stereo partly drawn) [Example 479, 2-((3,5-dicyano-4-ethyl-6-((2-((R)-2-(hydroxymethyl)pyrrolidin-1-yl)ethyl)(methyl)amino)pyridin-2-yl)thio)-2-phenylacetamide], the “DNMT1 BioChemical (pIC50 category)” value in test [1] (setting [4]) was “D (Category D: ≥6.5)”. For the same molecule, the EC50 in test [2] was less than 316 nM.
Consider `CCc1c(C#N)c(SC(C(N)=O)c2ccccc2)nc(N2CCN(Cc3cncs3)CC2)c1C#N` (centres unmarked) [Example 195, 2-((3,5-Dicyano-4-ethyl-6-(4-(thiazol-5-ylmethyl)piperazin-1-yl)pyridin-2-yl)thio)-2-phenylacetamide], for which, in test [1] (setting [3]), the IC50 was 316 to 1000 nM. Besides, the EC50 in test [2] was 316 to 1000 nM.
`CCc1c(C#N)c(SC(C(N)=O)c2ccccc2)nc(N(C)CCN2CC[C@@H](N)C2)c1C#N` (stereo partly drawn) [Example 529, 2-((6-((2-((R)-3-aminopyrrolidin-1-yl)ethyl)(methyl)amino)-3,5-dicyano-4-ethylpyridin-2-yl)thio)-2-phenylacetamide]: in test [1] (setting [4]), the “DNMT1 BioChemical (pIC50 category)” value was “D (Category D: ≥6.5)”. The EC50 in test [2] was 316 to 1000 nM.
In the case of `CCc1c(C#N)c(SC(C(N)=O)c2ccccc2)nc(N2CCC(N(C)CC(C)(C)C)CC2)c1C#N` (centres unmarked) [Example 551, 2-((3,5-dicyano-4-ethyl-6-(4-(methyl(neopentyl)amino)piperidin-1-yl)pyridin-2-yl)thio)-2-phenylacetamide], in test [1] (setting [4]), the “DNMT1 BioChemical (pIC50 category)” value is recorded as “D (Category D: ≥6.5)”. Moreover, the EC50 in test [2] was less than 316 nM.
The matching figures for `CCc1c(C#N)c(S[C@@H](C(N)=O)c2ccccc2)nc(N2CC[C@@H](NC(=O)OC(C)(C)C)[C@@H](O)C2)c1C#N` [Example 533, tert-butyl ((3S,4R)-1-(6-(((R)-2-amino-2-oxo-1-phenylethyl)thio)-3,5-dicyano-4-ethylpyridin-2-yl)-3-hydroxypiperidin-4-yl)carbamate]: “D (Category D: ≥6.5)” and less than 316 nM.
Turning to `CCc1c(C#N)c(SC(C(N)=O)c2ccccc2)nc(N2CCO[C@@H](CN)C2)c1C#N` (stereo partly drawn) [Example 586, 2-((6-((S)-2-(aminomethyl)morpholino)-3,5-dicyano-4-ethylpyridin-2-yl)thio)-2-phenylacetamide], in test [1] (setting [4]), the “DNMT1 BioChemical (pIC50 category)” value is on record as “D (Category D: ≥6.5)”. In test [2], the EC50 was less than 316 nM.
Regarding `CCc1c(C#N)c(SC(C(N)=O)c2ccccc2)nc(N2CCN(Cc3cnoc3)CC2)c1C#N` (centres unmarked) [Example 185], the IC50 in test [1] (setting [3]) was 316 to 1000 nM. Moreover, the EC50 in test [2] is 316 to 1000 nM.
Consider `CCc1c(C#N)c(SCc2ccccc2)nc(N2CCC(NC(=O)CN)CC2)c1C#N` [Example 94, 2-Amino-N-(1-(6-(benzylthio)-3,5-dicyano-4-ethylpyridin-2-yl)piperidin-4-yl)acetamide, Trifluoroacetic Acid Salt], for which, in test [1] (setting [3]), the IC50 was 316 to 1000 nM. In addition, the EC50 in test [2] is more than 31600 nM.
As to `CCc1c(C#N)c(S[C@H](C(N)=O)c2ccccc2)nc(N2CC[C@H](OP(=O)(O)O)C2)c1C#N` [Example 417, (S)-1-(6-(((S)-2-amino-2-oxo-1-phenylethyl)thio)-3,5-dicyano-4-ethylpyridin-2-yl)pyrrolidin-3-yl dihydroden phosphate], in test [1] (setting [4]), the “DNMT1 BioChemical (pIC50 category)” value is given as “A (Category A: <4.5)”. Moreover, the EC50 in test [2] is more than 31600 nM.
In the case of `CCc1c(C#N)c(SC(C(N)=O)c2ccccc2)nc(N2CCO[C@@H](CNCC(C)(C)C)C2)c1C#N` (stereo partly drawn) [Example 567, 2-((3,5-dicyano-4-ethyl-6-((S)-2-((neopentylamino)methyl)morpholino)pyridin-2-yl)thio)-2-phenylacetamide], the “DNMT1 BioChemical (pIC50 category)” value in test [1] (setting [4]) was “D (Category D: ≥6.5)”. In addition, in test [2], the EC50 is less than 316 nM.
In the case of `CCc1c(C#N)c(SCc2ccc(N(C)S(C)(=O)=O)cc2)nc(N2CCCN(C)CC2)c1C#N` [Example 355, N-(4-(((3,5-Dicyano-4-ethyl-6-(4-methyl-1,4-diazepan-1-yl)pyridin-2-yl)thio)methyl)phenyl)-N-methylmethanesulfonamide], the “DNMT1 BioChemical (pIC50 category)” value in test [1] (setting [4]) was “D (Category D: ≥6.5)”. For the same molecule, the EC50 in test [2] was less than 316 nM.
The matching figures for `CCc1c(C#N)c(SC(C(N)=O)c2ccccc2)nc(N2CCC(N(C)CCO)CC2)c1C#N` (centres unmarked) [Example 443, 2-((3,5-dicyano-4-ethyl-6-(4-((2-hydroxyethyl)(methyl)amino)piperidin-1-yl)pyridin-2-yl)thio)-2-phenylacetamide]: “D (Category D: ≥6.5)” and less than 316 nM.
Turning to `CCc1c(C#N)c(SC(C(N)=O)c2ccc(OC)cn2)nc(N(C)C)c1C#N` (centres unmarked) [Example 237, 2-((3,5-Dicyano-6-(dimethylamino)-4-ethylpyridin-2-yl)thio)-2-(5-methoxypyridin-2-yl)acetamide], the IC50 is 316 to 1000 nM in test [1] (setting [3]); 316 to 1000 nM and 398 nM in test [1] (breaklight assay and/or SPA assay, repeated experimental runs, read-out: average pIC50 against DNMT1 (converted)). Moreover, in test [2], the EC50 is 1000 to 31600 nM.
For `CCc1c(C#N)c(SC(C(N)=O)c2ccccc2)nc(N2CCC[C@H](N)C2)c1C#N` (stereo partly drawn) [Example 612, 2-((6-((S)-3-aminopiperidin-1-yl)-3,5-dicyano-4-ethylpyridin-2-yl)thio)-2-phenylacetamide], in test [1] (setting [4]), the “DNMT1 BioChemical (pIC50 category)” value was “D (Category D: ≥6.5)”. In addition, the EC50 in test [2] was less than 316 nM.
Turning to `CCc1c(C#N)c(SCc2ccc(N(C)S(C)(=O)=O)cc2)nc(N2CCC(NC(=O)[C@@H](C)N)CC2)c1C#N` [Example 584, (R)-2-amino-N-(1-(3,5-dicyano-4-ethyl-6-((4-(N-methylmethylsulfonamido)benzyl)thio)pyridin-2-yl)piperidin-4-yl)propanamide], the “DNMT1 BioChemical (pIC50 category)” value in test [1] (setting [4]) is “D (Category D: ≥6.5)”. In addition, the EC50 in test [2] was less than 316 nM.
For the molecule `CN(CCCN)c1nc(SC(C(N)=O)c2ccccc2)c(C#N)c(C2CC2)c1C#N` (centres unmarked) [Example 391, 2-((6-((3-Aminopropyl) (methyl)amino-3,5-dicyano-4-cyclopropylpyridin-2-yl)thio-2-phenylacetamide, Hydrochloride], the “DNMT1 BioChemical (pIC50 category)” value in test [1] (setting [4]) is on record as “D (Category D: ≥6.5)”. The EC50 in test [2] was 1000 to 31600 nM.
For `CCc1c(C#N)c(SC(C(N)=O)c2ccccc2)nc(N2CCC(N)(CO)CC2)c1C#N` (centres unmarked) [Example 242, 2-((6-(4-Amino-4-(hydroxymethyl)piperidin-1-yl)-3,5-dicyano-4-ethylpyridin-2-yl)thio)-2-phenylacetamide, Trifluoroacetic Acid Salt], in test [1] (setting [4]), the “DNMT1 BioChemical (pIC50 category)” value was “D (Category D: ≥6.5)”. The EC50 in test [2] is less than 316 nM.
`CCc1c(C#N)c(SC(C(N)=O)c2ccccc2)nc(N2CC[C@@H](N)[C@@H](F)C2)c1C#N` (relative stereo) [Example 545, rel-2-((6-cis-4-amino-3-fluoropiperidin-1-yl)-3,5-dicyano-4-ethylpyridin-2-yl)thio)-2-phenylacetamide]: the IC50 in test [1] (setting [3]) was less than 316 nM. In addition, in test [2], the EC50 is less than 316 nM.
Take `CCc1c(C#N)c(SC(C(N)=O)c2ccccc2)nc(N(C)CC(=O)N2C[C@H](O)C[C@H](O)C2)c1C#N` (stereo partly drawn) [Example 659, 2-((3,5-dicyano-6-((2-((3R,5S)-3,5-dihydroxypiperidin-1-yl)-2-oxoethyl)(methyl)amino)-4-ethylpyridin-2-yl)thio)-2-phenylacetamide]: the “DNMT1 BioChemical (pIC50 category)” value in test [1] (setting [4]) is given as “D (Category D: ≥6.5)”. Besides, in test [2], the EC50 was less than 316 nM.
On to `CCc1c(C#N)c(SC(C(N)=O)c2ccc(F)cc2)nc(N2CC[C@H](N(C)C)C2)c1C#N` (stereo partly drawn) [Example 544, 2-((3,5-dicyano-6-((S)-3-(dimethylamino)pyrrolidin-1-yl)-4-ethylpyridin-2-yl)thio)-2-(4-fluorophenyl)acetamide], for which, in test [1] (setting [4]), the “DNMT1 BioChemical (pIC50 category)” value is recorded as “D (Category D: ≥6.5)”. Moreover, the EC50 in test [2] is 1000 to 31600 nM.
As for `CCc1c(C#N)c(SC(C(N)=O)c2ccccc2)nc(N2CCC3(COC3)C2)c1C#N` (centres unmarked) [Example 161, 2-((3,5-Dicyano-4-ethyl-6-(2-oxa-6-azaspiro[3.4]octan-6-yl)pyridin-2-yl)thio)-2-phenylacetamide], in test [1] (setting [3]), the IC50 is 316 to 1000 nM. Further, the EC50 in test [2] was 1000 to 31600 nM.
The matching figures for `CCc1c(C#N)c(SC(C(N)=O)c2ccccc2)nc(N2CC[C@@H](O)C2)c1C#N` (stereo partly drawn) [Example 160, 2-((3,5-Dicyano-4-ethyl-6-((R)-3-hydroxypyrrolidin-1-yl)pyridin-2-yl)thio)-2-phenylacetamide]: 1000 to 31600 nM and 1000 to 31600 nM.
